Our source for the inhibition and Activity values is ChEMBL document CHEMBL5715954, “Silencing c-Myc translation as a therapeutic strategy through targeting PI3Kδ and CK1ε in hematological malignancies” (Blood, 2017).

SMILES strings stand for the structures. Active and inactive are the calls of the source. The calls are words filed in the database; no cut-off is given here.

For assay [1], the target named is T1, mTORC1 (Homo sapiens) (UniProt P42345+Q8N122+Q9BVC4). Kind of assay: Inhibition of mTORC1 in human SLL cells assessed as reduction in c-Myc expression at 5 uM measured after 24 hrs in presence of bortezomib by Western blot analysis. The class given is cell-based. (In general: A western blot detects proteins with antibodies after separation by electrophoresis.)
T1 sequence (Q8N122 whole entry, looked up, other chains not shown): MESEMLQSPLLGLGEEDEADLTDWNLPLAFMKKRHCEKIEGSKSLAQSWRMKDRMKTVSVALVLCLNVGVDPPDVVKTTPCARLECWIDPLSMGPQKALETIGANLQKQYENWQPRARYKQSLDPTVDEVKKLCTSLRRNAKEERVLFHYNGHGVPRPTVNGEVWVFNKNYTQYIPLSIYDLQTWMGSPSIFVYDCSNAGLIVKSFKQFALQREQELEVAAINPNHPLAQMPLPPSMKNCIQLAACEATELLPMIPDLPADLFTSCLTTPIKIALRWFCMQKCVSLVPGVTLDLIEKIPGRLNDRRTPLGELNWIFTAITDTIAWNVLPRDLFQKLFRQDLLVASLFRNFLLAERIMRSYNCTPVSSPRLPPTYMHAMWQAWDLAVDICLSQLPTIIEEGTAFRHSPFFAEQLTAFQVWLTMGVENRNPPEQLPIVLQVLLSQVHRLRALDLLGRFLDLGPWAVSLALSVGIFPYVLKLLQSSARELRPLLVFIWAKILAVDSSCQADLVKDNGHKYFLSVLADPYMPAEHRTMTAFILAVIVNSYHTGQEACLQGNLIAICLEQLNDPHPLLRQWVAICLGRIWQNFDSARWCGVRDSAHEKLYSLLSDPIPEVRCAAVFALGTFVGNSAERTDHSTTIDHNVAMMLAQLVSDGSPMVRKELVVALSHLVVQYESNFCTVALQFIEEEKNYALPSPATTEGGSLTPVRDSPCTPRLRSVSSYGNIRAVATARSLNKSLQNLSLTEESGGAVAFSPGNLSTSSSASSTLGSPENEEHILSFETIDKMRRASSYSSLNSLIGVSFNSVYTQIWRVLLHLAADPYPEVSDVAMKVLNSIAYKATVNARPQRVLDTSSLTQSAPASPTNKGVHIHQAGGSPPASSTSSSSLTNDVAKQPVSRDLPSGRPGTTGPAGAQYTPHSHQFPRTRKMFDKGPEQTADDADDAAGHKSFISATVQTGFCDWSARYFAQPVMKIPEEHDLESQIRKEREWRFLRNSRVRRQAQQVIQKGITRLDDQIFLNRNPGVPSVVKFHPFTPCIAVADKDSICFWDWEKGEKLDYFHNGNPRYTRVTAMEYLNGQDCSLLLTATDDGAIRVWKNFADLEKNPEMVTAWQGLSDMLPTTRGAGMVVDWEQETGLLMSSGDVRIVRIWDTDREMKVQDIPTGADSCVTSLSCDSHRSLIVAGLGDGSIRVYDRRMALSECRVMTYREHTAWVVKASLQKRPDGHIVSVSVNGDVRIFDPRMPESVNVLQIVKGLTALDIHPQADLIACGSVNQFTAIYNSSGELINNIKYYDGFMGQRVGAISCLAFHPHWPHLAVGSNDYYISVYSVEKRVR
T1 sequence (Q9BVC4 whole entry, looked up, other chains not shown): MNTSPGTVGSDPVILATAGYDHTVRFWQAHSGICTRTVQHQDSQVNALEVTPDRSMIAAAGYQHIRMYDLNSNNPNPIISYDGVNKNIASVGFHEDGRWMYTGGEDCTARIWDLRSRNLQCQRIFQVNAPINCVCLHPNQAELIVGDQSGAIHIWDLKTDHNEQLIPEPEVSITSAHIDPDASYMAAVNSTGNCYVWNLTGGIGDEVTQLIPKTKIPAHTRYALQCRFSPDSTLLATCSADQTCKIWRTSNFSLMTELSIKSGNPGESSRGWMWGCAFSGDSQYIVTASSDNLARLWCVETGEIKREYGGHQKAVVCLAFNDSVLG

The target in assay [2] is T1, mTORC1 (Homo sapiens). Kind of assay: Inhibition of mTORC1 in human PF-382 cells assessed as reduction in c-Myc expression at 5 uM measured after 24 hrs by Western blot analysis. The class given is cell-based.
In assay [3] the target is T1, mTORC1 (Homo sapiens). Kind of assay: Inhibition of mTORC1 in human SLL cells assessed as reduction in 4E-BP1 phosphorylation at 5 uM measured after 24 hrs by Western blot analysis. The class given is cell-based.
The target in assay [4] is T1, mTORC1 (Homo sapiens). Kind of assay: Inhibition of mTORC1 in human LY7 cells assessed as reduction in 4E-BP1 phosphorylation at 3 uM measured after 24 hrs by Western blot analysis. The class given is cell-based.
Assay [5] addresses T1, mTORC1 (Homo sapiens). Kind of assay: Inhibition of mTORC1 in human LY10 cells assessed as reduction in c-Myc expression at 3 uM measured after 24 hrs in presence of bortezomib by Western blot analysis. The class given is cell-based.
The target in assay [6] is T1, mTORC1 (Homo sapiens). Kind of assay: Inhibition of mTORC1 in human LY7 cells assessed as reduction in c-Myc expression at 3 uM measured after 24 hrs by Western blot analysis. The class given is cell-based.
In the next assay the test system is Rec1. Kind of assay: Cytotoxicity against human REC1 cells assessed as reduction in cell viability measured after 24 hrs by cell titer-glo assay. The class given is functional, cell-based.
The next assay has as its system OCI-Ly10. Kind of assay: Induction of apoptosis in human LY10 cells assessed as increase in cleaved-PARP expression at 3 uM measured after 24 hrs in presence of carfilzomib by Western blot analysis. The class given is functional, cell-based.
A further assay deals with SLL. Kind of assay: Induction of apoptosis in human SLL cells assessed as increase in cleaved-PARP expression at 5 uM measured after 24 hrs in presence of carfilzomib by Western blot analysis. The class given is functional, cell-based.
In assay [7] the test system is MZL. Kind of assay: Induction of apoptosis in human MZL cells assessed as increase in cleaved-PARP expression at 5 uM measured after 24 hrs in presence of carfilzomib by Western blot analysis. The class given is functional, cell-based.
Assay [8] deals with MZL. Kind of assay: Induction of apoptosis in human MZL cells assessed as increase in cleaved-PARP expression at 5 uM measured after 24 hrs in presence of bortezomib by Western blot analysis. The class given is functional, cell-based.
For assay [9], the target named is T1, mTORC1 (Homo sapiens). Kind of assay: Inhibition of mTORC1 in human LY10 cells assessed as reduction in c-Myc mRNA expression at 3 uM measured after 24 hrs in presence of carfilzomib. The class given is cell-based.
In assay [10] the target is T1, mTORC1 (Homo sapiens). Kind of assay: Inhibition of mTORC1 in human LY10 cells assessed as reduction in c-Myc mRNA expression at 3 uM measured after 24 hrs in presence of bortezomib. The class given is cell-based.
Assay [11] deals with Myc proto-oncogene protein (Homo sapiens) (UniProt P01106). Kind of assay: Inhibition of c-Myc in human LY10 cells assessed as reduction in E2F1 expression at 3 uM incubated for 24 hrs by Western blot analysis. The class given is cell-based.
Myc proto-oncogene protein (Homo sapiens), sequence (P01106 whole entry): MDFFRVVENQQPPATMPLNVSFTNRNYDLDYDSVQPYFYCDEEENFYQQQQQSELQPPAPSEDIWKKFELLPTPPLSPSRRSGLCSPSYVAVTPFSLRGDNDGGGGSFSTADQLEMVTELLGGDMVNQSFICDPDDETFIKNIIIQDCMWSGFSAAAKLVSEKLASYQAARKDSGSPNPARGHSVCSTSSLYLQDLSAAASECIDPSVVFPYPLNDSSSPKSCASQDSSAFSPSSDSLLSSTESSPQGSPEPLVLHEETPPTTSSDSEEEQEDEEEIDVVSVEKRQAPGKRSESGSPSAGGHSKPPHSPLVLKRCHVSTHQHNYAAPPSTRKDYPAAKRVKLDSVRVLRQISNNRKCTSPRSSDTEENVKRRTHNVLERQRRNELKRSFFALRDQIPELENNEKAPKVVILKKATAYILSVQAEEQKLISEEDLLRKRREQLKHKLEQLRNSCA
The target is the same in assay [12]. Kind of assay: Inhibition of c-Myc in human LY7 cells assessed as reduction in E2F1 expression at 3 uM incubated for 24 hrs by Western blot analysis. The class given is cell-based.
Assay [13] has the same target. Kind of assay: Inhibition of c-Myc in human LY10 cells assessed as reduction in E2F1 expression at 3 uM incubated for 24 hrs in presence of bortezomib by Western blot analysis. The class given is cell-based.
The target of assay [14] is T2, Phosphatidylinositol 4,5-bisphosphate 3-kinase catalytic subunit delta isoform (Homo sapiens) (UniProt O00329).
T2 sequence (whole entry): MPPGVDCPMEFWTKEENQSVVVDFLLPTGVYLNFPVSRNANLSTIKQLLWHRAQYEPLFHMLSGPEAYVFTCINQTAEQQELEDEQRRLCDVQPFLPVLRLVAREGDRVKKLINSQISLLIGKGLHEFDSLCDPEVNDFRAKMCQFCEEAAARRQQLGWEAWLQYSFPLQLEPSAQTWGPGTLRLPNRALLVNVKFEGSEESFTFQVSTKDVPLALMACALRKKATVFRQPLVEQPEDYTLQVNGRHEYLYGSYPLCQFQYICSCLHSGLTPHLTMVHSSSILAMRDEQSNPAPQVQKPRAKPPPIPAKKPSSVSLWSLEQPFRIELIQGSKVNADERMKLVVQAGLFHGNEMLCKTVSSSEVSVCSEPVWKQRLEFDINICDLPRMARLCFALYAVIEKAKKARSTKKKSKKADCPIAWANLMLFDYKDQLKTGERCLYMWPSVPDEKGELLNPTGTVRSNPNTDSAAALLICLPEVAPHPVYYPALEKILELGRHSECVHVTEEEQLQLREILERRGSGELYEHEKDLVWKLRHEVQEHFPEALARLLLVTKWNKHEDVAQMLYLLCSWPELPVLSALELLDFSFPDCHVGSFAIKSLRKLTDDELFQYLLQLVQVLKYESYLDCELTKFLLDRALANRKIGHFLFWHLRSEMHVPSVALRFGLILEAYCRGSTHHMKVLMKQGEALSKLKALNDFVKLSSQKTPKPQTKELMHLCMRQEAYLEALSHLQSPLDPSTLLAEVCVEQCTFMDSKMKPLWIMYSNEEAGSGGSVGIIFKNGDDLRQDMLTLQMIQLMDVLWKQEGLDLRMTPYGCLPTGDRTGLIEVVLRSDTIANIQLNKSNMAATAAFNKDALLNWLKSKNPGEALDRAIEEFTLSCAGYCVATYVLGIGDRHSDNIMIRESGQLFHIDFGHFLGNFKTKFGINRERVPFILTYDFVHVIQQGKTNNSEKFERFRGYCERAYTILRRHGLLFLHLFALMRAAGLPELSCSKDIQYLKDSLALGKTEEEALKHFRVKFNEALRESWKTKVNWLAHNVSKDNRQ
Kind of assay: Inhibition of PI3Kdelta in human Jurkat cells assessed as reduction in AKT phosphorylation at S473 residue measured after 4 hrs. The class given is cell-based. To be noted: dose 10-10000 nM.

Assay [15] deals with T2, Phosphatidylinositol 4,5-bisphosphate 3-kinase catalytic subunit delta isoform (Homo sapiens). Kind of assay: Inhibition of PI3Kdelta in human THP-1 cells assessed as reduction in AKT phosphorylation at S473 residue at 1 uM measured after 4 hrs relative to control. The class given is cell-based.
For assay [16] the target is unchanged. Kind of assay: Inhibition of PI3Kdelta in human DB cells assessed as reduction in AKT phosphorylation at S473 residue at 1 uM measured after 4 hrs relative to control. The class given is cell-based.
The subject of another assay is MOLT-4. Kind of assay: Antitumor activity against human MOLT-4 cells xenografted in NOD/SCID mouse assessed as reduction in tumor volume at 150 mg/kg, po administered daily for 25 days measured at 2 to 3 times per week during compound dosing by caliper method. The class given is functional, organism-based. To be noted: time 25.0 day. In general terms: A xenograft is tissue or cells of one species grown in another, often human tumour cells in immunodeficient mice.

For assay [17], the target named is T1, mTORC1 (Homo sapiens). Kind of assay: Inhibition of mTORC1 in human OCILY7 cells transfected with c-Myc-expressing plasmid (M+) assessed as reduction in endogenous c-Myc expression at 3 to 5 uM incubated for 24 hrs in presence of carfilzomib by Western blot analysis. To be noted: dose 3-5 µM. The class given is cell-based.
The target in assay [18] is Casein kinase I isoform epsilon (Homo sapiens, UniProt P49674). Kind of assay: Inhibition of CK1epsilon in human LY7 cells assessed as reduction in CK1epsilon autophosphorylation at 10 to 25 uM preincubated for 1 hr followed by addition of PP2A inhibitor calyculin A and measured after 15 to 60 mins by Western blot analysis. The class given is cell-based. To be noted: dose 10-25 µM, time lower 75.0 min, time upper […].
Casein kinase I isoform epsilon, sequence (P49674 whole entry, looked up, canonical isoform): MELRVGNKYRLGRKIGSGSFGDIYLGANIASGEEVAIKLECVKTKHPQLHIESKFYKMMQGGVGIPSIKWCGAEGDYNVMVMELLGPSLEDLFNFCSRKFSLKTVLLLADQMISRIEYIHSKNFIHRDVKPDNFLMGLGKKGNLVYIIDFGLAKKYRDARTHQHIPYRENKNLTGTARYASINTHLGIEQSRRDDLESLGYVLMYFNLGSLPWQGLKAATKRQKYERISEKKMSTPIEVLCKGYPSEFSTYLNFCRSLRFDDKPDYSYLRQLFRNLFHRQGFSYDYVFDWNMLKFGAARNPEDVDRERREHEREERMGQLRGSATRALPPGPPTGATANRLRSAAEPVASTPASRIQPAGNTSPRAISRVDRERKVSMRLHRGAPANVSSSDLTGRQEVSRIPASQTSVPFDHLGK

As to `CC[C@H](Nc1ncnc2[nH]cnc12)c1nc2cccc(F)c2c(=O)n1-c1ccccc1`, the inhibition result on mTORC1 (Homo sapiens) [1], on mTORC1 (Homo sapiens) [2], on mTORC1 (Homo sapiens) [3], at mTORC1 (Homo sapiens) [4], at mTORC1 (Homo sapiens) [5] and on mTORC1 (Homo sapiens) [6] was “inactive” throughout. Further, the inhibition result (at mTORC1 (Homo sapiens) [9]; at mTORC1 (Homo sapiens) [10]; in assay [11]; in assay [12]; in [13]) was “inactive” throughout. In addition, the result with Rec1, with OCI-Ly10, in the assay on SLL, in the assay with MZL [7] and in the assay on MZL [8] was Active.
For the compound `CC(C)Oc1ccc(-c2nn([C@@H](C)c3oc4ccc(F)cc4c(=O)c3-c3cccc(F)c3)c3ncnc(N)c23)cc1F` [UMBRALISIB], the inhibition result on mTORC1 (Homo sapiens) [2], on mTORC1 (Homo sapiens) [3], on mTORC1 (Homo sapiens) [4], on mTORC1 (Homo sapiens) [6], at mTORC1 (Homo sapiens) [9] and on mTORC1 (Homo sapiens) [10] was “inactive” each time. In addition, the inhibition entry (at mTORC1 (Homo sapiens) [17]; in assay [11]; in assay [12]) was “inactive” each time. The inhibition entry (on mTORC1 (Homo sapiens) [5]; in [18]) was “Active” each time. Further, the figures for the inhibition entry in assay [14], in assay [15] and in [16] were “Dose-Dependent Effect”, 43% and 43%, respectively. The outcome in the assay on MOLT-4, with Rec1, with OCI-Ly10, with SLL and with MZL [7] was Active.

In general, inhibition refers to the share of the control response that was lost under treatment.
